Starred links: 1 amine or outer side, 2 acyl side, 3 side chain; linkers in the order of their positions; H or OH if unused. Positions of bridges follow the written chain, without caps; N, C: chain ends. Non-standard residues stand in square brackets, D forms with d. Residues, ends and D or L forms follow the SMILES beside them. *: point of attachment. NMeF = CN[C@@H](Cc1ccccc1)C(=O)O; NMeGABA = CN(CCCC(=O)[*:2])[*:1]; NMeβAla = CN(CCC(=O)[*:2])[*:1]; NMeL = CN[C@@H](CC(C)C)C(=O)O; NMeV = CN[C@H](C(=O)O)C(C)C; NMeA = CN[C@@H](C)C(=O)O; Piperidide = C1CCN(*)CC1; dNMeA = CN[C@H](C)C(=O)O; Sar = CNCC(=O)O
What was measured:
[1] = Metabolic stability in human hepatic microsome; assay type: in vitro ADME; details: microsomes, pH 7.4; human hepatic microsome, NADPH(+); read-out: CL NADPH(+)
[2] = PAMPA (parallel artificial membrane permeability assay); assay type: in vitro ADME; details: PAMPA; membrane permeation rate (Pe); 50 mM MOPSO buffer pH 6.5 with 5.0% glycocholic acid, 37° C., 18 hours; read-out: iPAMPA Pe
In short: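 Artificial membrane was 10% (w/v) egg lecithin plus 0.5% (w/v) cholesterol in dodecane on a PVDF filter. A 10 mM DMSO stock was added at 0.5% (v/v) to donor buffer (50 mM MOPSO, pH 6.5, 5.0% glycocholic acid). After 18 h at 37 °C, LC/MS or LC/UV gave donor and acceptor levels for Pe.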

Row | Compound | microsomal CLint at 1 uM [1] [µL/min/mg] | Papp at 18 hours, 50 µM [2] [×10⁻⁶ cm/s]
1 | CC(C)C[C@H]1C(=O)N[C@@H](Cc2ccccc2)C(=O)N(C)[C@@H](C(C)C)C(=O)N(C)[C@@H](C)C(=O)N(C)[C@@H](Cc2ccccc2)C(=O)N[C@@H]([C@@H](C)O)C(=O)NCC(=O)N[C@H](C(=O)N(C)[C@@H](Cc2ccccc2)C(=O)N[C@@H](C)C(=O)N2CCCCC2)CC(=O)N(C)[C@@H](C)C(=O)N[C@@H](C)C(=O)N1C [DP-375] ([NMeA]A[NMeL]F[NMeV][NMeA][NMeF]TGD[NMeF]A-Piperidide; lactam N-10) | 39 | 19
2 | CC(C)C[C@H]1C(=O)N(C)[C@@H](C)C(=O)N[C@H](C(=O)N(C)[C@@H](Cc2ccccc2)C(=O)N[C@@H](C)C(=O)N2CCCCC2)CC(=O)N(C)[C@@H](C)C(=O)N(C)[C@@H](C)C(=O)N(C)[C@@H](Cc2ccccc2)C(=O)N[C@@H]([C@@H](C)O)C(=O)N(C)[C@@H](C)C(=O)N(C)[C@@H](Cc2ccccc2)C(=O)N[C@@H](C)C(=O)N1C [DP-377] ([NMeA][NMeA][NMeF]T[NMeA][NMeF]A[NMeL][NMeA]D[NMeF]A-Piperidide; lactam N-10) | 70 | 23
3 | CC(C)C[C@H]1C(=O)NCC(=O)N[C@H](C(=O)N(C)[C@@H](Cc2ccccc2)C(=O)N[C@@H](C)C(=O)N2CCCCC2)CC(=O)N[C@@H](C)C(=O)N[C@@H]([C@@H](C)O)C(=O)N(C)[C@@H](C)C(=O)N(C)[C@@H](Cc2ccccc2)C(=O)N[C@@H](C(C)C)C(=O)N(C)[C@@H](Cc2ccccc2)C(=O)N1C [DP-378] (AT[NMeA][NMeF]V[NMeF][NMeL]GD[NMeF]A-Piperidide; lactam N-9) | 219 | 31
4 | CC(C)C[C@H]1C(=O)N[C@H](C(=O)N(C)[C@@H](Cc2ccccc2)C(=O)N[C@@H](C)C(=O)N2CCCCC2)CC(=O)N(C)CCC(=O)N[C@@H]([C@@H](C)O)C(=O)N(C)[C@@H](C)C(=O)N(C)[C@@H](CC(C)C)C(=O)N[C@@H](C(C)C)C(=O)N(C)[C@@H](Cc2ccccc2)C(=O)N[C@@H](Cc2ccccc2)C(=O)N1C [DP-379] ([NMeβAla]T[NMeA][NMeL]V[NMeF]F[NMeL]D[NMeF]A-Piperidide; lactam N-9) | 236 | 41
5 | CC(C)C[C@H]1C(=O)N[C@@H](C(C)C)C(=O)N[C@H](C(=O)N(C)[C@@H](Cc2ccccc2)C(=O)N[C@@H](C)C(=O)N2CCCCC2)CC(=O)N[C@H](C)C(=O)N(C)[C@@H](C)C(=O)N(C)[C@@H](Cc2ccccc2)C(=O)N(C)[C@@H](CC(C)C)C(=O)N[C@@H]([C@@H](C)O)C(=O)N(C)CC(=O)N1C [DP-380] ([dA][NMeA][NMeF][NMeL]T[Sar][NMeL]VD[NMeF]A-Piperidide; lactam N-9) | 58 | 17
6 | CC(C)C[C@H]1C(=O)N[C@H](C(=O)N(C)[C@@H](Cc2ccccc2)C(=O)N[C@@H](C)C(=O)N2CCCCC2)CC(=O)N(C)[C@H](C)C(=O)N(C)[C@@H](CC(C)C)C(=O)N(C)[C@@H](C)C(=O)N[C@@H]([C@@H](C)O)C(=O)N[C@@H](Cc2ccccc2)C(=O)N(C)[C@@H](Cc2ccccc2)C(=O)N[C@@H](C(C)C)C(=O)N1C [DP-381] ([dNMeA][NMeL][NMeA]TF[NMeF]V[NMeL]D[NMeF]A-Piperidide; lactam N-9) | 84 | 45
7 | CC(C)C[C@H]1C(=O)NCC(=O)N[C@H](C(=O)N(C)[C@@H](Cc2ccccc2)C(=O)N[C@@H](C)C(=O)N2CCCCC2)CC(=O)N[C@H](C(C)C)C(=O)N[C@@H]([C@@H](C)O)C(=O)N(C)[C@@H](C)C(=O)N(C)[C@@H](Cc2ccccc2)C(=O)N[C@@H](C(C)C)C(=O)N(C)[C@@H](Cc2ccccc2)C(=O)N1C [DP-382] ([dV]T[NMeA][NMeF]V[NMeF][NMeL]GD[NMeF]A-Piperidide; lactam N-9) | 188 | 49
8 | CC(C)C[C@H]1C(=O)N[C@@H](Cc2ccccc2)C(=O)N[C@H](C(=O)N(C)[C@@H](Cc2ccccc2)C(=O)N[C@@H](C)C(=O)N2CCCCC2)CC(=O)N(C)CCCC(=O)N[C@@H]([C@@H](C)O)C(=O)N(C)CC(=O)N(C)[C@@H](C)C(=O)N[C@@H](C(C)C)C(=O)N(C)[C@@H](Cc2ccccc2)C(=O)N1C [DP-383] ([NMeGABA]T[Sar][NMeA]V[NMeF][NMeL]FD[NMeF]A-Piperidide; lactam N-9) | 138 | 14
9 | CC[C@H](C)[C@@H]1NC(=O)[C@H](C)N(C)C(=O)[C@H]([C@@H](C)O)NC(=O)[C@H](Cc2ccccc2)N(C)C(=O)[C@H](CC(C)C)N(C)C(=O)CCCN(C)C(=O)C[C@@H](C(=O)N(C)[C@@H](Cc2ccccc2)C(=O)N[C@@H](C)C(=O)N2CCCCC2)NC(=O)[C@H](C(C)C)N(C)C(=O)[C@H](CC(C)C)N(C)C1=O [DP-384] ([NMeGABA][NMeL][NMeF]T[NMeA]I[NMeL][NMeV]D[NMeF]A-Piperidide; lactam N-9) | 214 | 26
10 | CC(C)C[C@H]1C(=O)N[C@H](C(=O)N(C)[C@@H](Cc2ccccc2)C(=O)N[C@@H](C)C(=O)N2CCCCC2)CC(=O)N(C)CCCC(=O)N[C@@H](C(C)C)C(=O)N(C)[C@@H](Cc2ccccc2)C(=O)N(C)[C@@H](CC(C)C)C(=O)N[C@@H]([C@@H](C)O)C(=O)N(C)[C@@H](C)C(=O)N(C)CC(=O)N1C [DP-385] ([NMeGABA]V[NMeF][NMeL]T[NMeA][Sar][NMeL]D[NMeF]A-Piperidide; lactam N-9) | 102 | 18
11 | CC(C)C[C@H]1C(=O)N[C@H](C(=O)N(C)[C@@H](Cc2ccccc2)C(=O)N[C@@H](C)C(=O)N2CCCCC2)CC(=O)N(C)[C@@H](C)C(=O)N[C@@H]([C@@H](C)O)C(=O)N(C)[C@@H](C)C(=O)N(C)[C@@H](CC(C)C)C(=O)N[C@@H](C(C)C)C(=O)N(C)[C@@H](Cc2ccccc2)C(=O)N[C@@H](Cc2ccccc2)C(=O)N1C [DP-386] ([NMeA]T[NMeA][NMeL]V[NMeF]F[NMeL]D[NMeF]A-Piperidide; lactam N-9) | 222 | 54
12 | CC(C)C[C@H]1C(=O)N(C)[C@@H](C)C(=O)N[C@H](C(=O)N(C)[C@@H](Cc2ccccc2)C(=O)N[C@@H](C)C(=O)N2CCCCC2)CC(=O)N(C)CC(=O)N[C@@H](C(C)C)C(=O)N(C)[C@@H](Cc2ccccc2)C(=O)N(C)[C@@H](CC(C)C)C(=O)N[C@@H]([C@@H](C)O)C(=O)N(C)CC(=O)N1C [DP-388] ([Sar]V[NMeF][NMeL]T[Sar][NMeL][NMeA]D[NMeF]A-Piperidide; lactam N-9) | 41 | 11
13 | CC[C@H](C)[C@@H]1NC(=O)[C@H](C)NC(=O)C[C@@H](C(=O)N(C)[C@@H](Cc2ccccc2)C(=O)N(C)[C@@H](Cc2ccccc2)C(=O)N[C@@H](C)C(=O)N2CCCCC2)NC(=O)[C@H](C)NC(=O)[C@H](C)N(C)C(=O)[C@H](CC(C)C)N(C)C(=O)CN(C)C(=O)[C@H]([C@@H](C)O)NC(=O)[C@H](C(C)C)N(C)C(=O)[C@H](Cc2ccccc2)N(C)C1=O [DP-389] (AI[NMeF][NMeV]T[Sar][NMeL][NMeA]AD[NMeF][NMeF]A-Piperidide; lactam N-10) | 14 | 15
14 | CC(C)C[C@H]1C(=O)NCC(=O)N(C)[C@@H](C(C)C)C(=O)N[C@@H]([C@@H](C)O)C(=O)N[C@@H](Cc2ccccc2)C(=O)N[C@H](C(=O)N(C)[C@@H](Cc2ccccc2)C(=O)N(C)[C@@H](Cc2ccccc2)C(=O)N[C@@H](C)C(=O)N2CCCCC2)CC(=O)N(C)CCC(=O)N(C)[C@@H](C(C)C)C(=O)N[C@@H](C(C)C)C(=O)N(C)[C@@H](Cc2ccccc2)C(=O)N1C [DP-390] ([NMeβAla][NMeV]V[NMeF][NMeL]G[NMeV]TFD[NMeF][NMeF]A-Piperidide; lactam N-10) | 52 | 3.5
15 | CC(C)C[C@H]1C(=O)N[C@H](C(=O)N(C)[C@@H](Cc2ccccc2)C(=O)N(C)[C@@H](Cc2ccccc2)C(=O)N[C@@H](C)C(=O)N2CCCCC2)CC(=O)N(C)CCC(=O)N[C@@H](C)C(=O)N(C)[C@@H](Cc2ccccc2)C(=O)N(C)[C@@H](C(C)C)C(=O)NCC(=O)N[C@@H]([C@@H](C)O)C(=O)N(C)[C@@H](C)C(=O)N[C@@H](C(C)C)C(=O)N1C [DP-391] ([NMeβAla]A[NMeF][NMeV]GT[NMeA]V[NMeL]D[NMeF][NMeF]A-Piperidide; lactam N-10) | 14 | 4.5
16 | CC[C@H](C)[C@@H]1NC(=O)CCCN(C)C(=O)C[C@@H](C(=O)N(C)[C@@H](Cc2ccccc2)C(=O)N(C)[C@@H](Cc2ccccc2)C(=O)N[C@@H](C)C(=O)N2CCCCC2)NC(=O)[C@H](C(C)C)N(C)C(=O)[C@H](CC(C)C)N(C)C(=O)[C@H](C)NC(=O)CN(C)C(=O)[C@H]([C@@H](C)O)NC(=O)[C@H](Cc2ccccc2)N(C)C(=O)[C@H](C)N(C)C1=O [DP-392] ([NMeGABA]I[NMeA][NMeF]T[Sar]A[NMeL][NMeV]D[NMeF][NMeF]A-Piperidide; lactam N-10) | 18 | 20
17 | CC[C@H](C)[C@@H]1NC(=O)[C@H](CC(C)C)N(C)C(=O)[C@H](Cc2ccccc2)NC(=O)[C@H](C)N(C)C(=O)C[C@@H](C(=O)N(C)[C@@H](Cc2ccccc2)C(=O)N(C)[C@@H](Cc2ccccc2)C(=O)N[C@@H](C)C(=O)N2CCCCC2)NC(=O)[C@H](C(C)C)N(C)C(=O)[C@H](C)N(C)C(=O)[C@H](C)N(C)C(=O)[C@H]([C@@H](C)O)NC(=O)CN(C)C1=O [DP-394] ([NMeA]F[NMeL]I[Sar]T[NMeA][NMeA][NMeV]D[NMeF][NMeF]A-Piperidide; lactam N-10) | 10 | 22

Reference: patent publication US9409952B2, “Peptide-compound cyclization method” (Chugai Seiyaku Kabushiki Kaisha, priority 2011, dated 2016)
